Measured values: patent publication US7622464B2, “Morpholinyl-urea derivatives for use in the treatment of inflammatory diseases” (Glaxo Group Limited, priority 2002, dated 2009)

Molecular target: eosinophils purified from human peripheral blood
Assay: Eosinophil chemotaxis assay (eotaxin-induced)
Assay type: cell-based
Conditions: functional pKi; inhibition of human eosinophil chemotaxis to eotaxin (EC80 concentration)
Description: (b) Eosinophil Chemotaxis Assay.
Compounds were evaluated for their inhibitory effect on eosinophil chemotaxis. Eosinophils were purified from human peripheral blood by standard CD16 cell depletion using a Miltenyi cell separation column and a magnetic Super Macs magnet as previously described (Motegi & Kita, 1998; J. Immunology. 161:4340-6). Cells were re-suspended in RPMI 1640/10% FCS solution and incubated with calcein-AM (Molecular Probes) at 37° C. for 30 mins. Following incubation, the eosinophils were centrifuged at 400 g for 5 min and re-suspended in RPMI/FCS at 2.2 million/ml. Cells were then incubated in the presence of increasing concentration of compounds (1 pM to 30 μM) at 37° C. for 30 mins. For control responses cells were incubated with RPMI/FCS only. The agonist eotaxin (an EC80 concentration) was added to the lower chamber of a 96 well chemotaxis plate (5 μm filter: Receptor Technologies). Eosinophils (50 μl of 2 million/ml cells) were added to the top chamber of the filter plate and incubated at 37° C. for 45 mins. Cells remaining on top of the chemotaxis filter were removed and the number of eosinophils which had migrated were quantified by reading the plate on a fluorescent plate reader. Inhibition curves for the effect of compounds on eosinophil chemotaxis were analysed by fitting the data with a four parameter logistic equation. […]

| fpKi | Structure (SMILES) |
| --- | --- |
| 9.2 | O=C(NCc1nnn(CC2CC2)n1)NC[C@H]1CN(Cc2ccc(Cl)c(Cl)c2)CCO1 [Example 97, 1-(2-Cyclopropylmethyl-2H-tetrazol-5-ylmethyl)-3-[(2S)-4-(3,4-dichlorobenzyl)morpholin-2-ylmethyl]-urea] |
| 9.8 | CNC(=O)c1csc(CNC(=O)NC[C@H]2CN(Cc3ccc(Cl)c(Cl)c3)CCO2)c1 [Example 116, 5-{3-[(2S)-4-(3,4-Dichlorobenzyl)-morpholin-2-ylmethyl]-ureidomethyl}-thiophene-3-carboxylic acid methylamide] |
